From patent publication US20250275540A1, “USE OF PROTOPORPHYRINOGEN OXIDASE” (BEIJING DABEINONG BIOTECHNOLOGY CO., LTD., priority 2022, published 2025)

System: transgenic maize plants
Test: Detection of the herbicide tolerance of the transgenic maize plants
Assay type: in vivo
Settings: for The grade of pesticide damage/plant: 0 / The grade of pesticide damage/plant: 1 / The grade of pesticide damage/plant: 2 / The grade of pesticide damage/plant: 3: 7 DAT
Excerpt: The transformed Arabidopsis thaliana T1 plants were initially selected using glufosinate herbicide. The Arabidopsis thaliana T1 plants (PPOA-01) into which the PPOA-01 nucleotide sequence was introduced, the Arabidopsis thaliana T1 plants (PPOB-01) into which the PPOB-01 nucleotide sequence was introduced, the Arabidopsis thaliana T1 plants (PPOC-01) into which the PPOC-01 nucleotide sequence was introduced, the Arabidopsis thaliana T1 plants (PPOD-01) into which the PPOD-01 nucleotide sequence was introduced, the Arabidopsis thaliana T1 plants (PPOE-01) into which the PPOE-01 nucleotide sequence was introduced, the Arabidopsis thaliana T1 plants (PPOF-01) into which the PPOF-01 nucleotide sequence was introduced, the Arabidopsis thaliana T1 plants (PPO-AP-01) into which the PPO-AP-01 nucleotide sequence was introduced, and the Arabidopsis thaliana T1 plants (control vector) into which the control vector was introduced, the wild-type Arabidopsis thaliana plants (CK) (with 24 plants being included in each genotype) (18 days after sowing) were sprayed with saflufenacil at three concentrations (25 g ai/ha (one-fold field concentration, 1×), 100 g ai/ha (four-fold field concentration, 4×), and 0 g ai/ha (water, 0×)), oxyfluorfen at three concentrations (180 g ai/ha (one-fold field concentration, 1×), 720 g ai/ha (four-fold field concentration, 4×), and 0 g ai/ha (water, 0×)), and flumioxazin at three concentrations (60 g ai/ha (one-fold field concentration, 1×), 240 g ai/ha (four-fold field concentration, 4×), and 0 g ai/ha (water, 0×) to determine the tolerance of Arabidopsis thaliana to the herbicides. After 7 days of spraying (7 DAT), the damage level of each plant caused by the herbicide was evaluated according to the average of the damage levels (%) of plants (the average of the damage levels (%) of plants=the injured leaf area/the total leaf area×100%), i.e., the grade of pesticide damage: grade 0 means that the growth status of plants is essentially consistent with those sprayed with the blank solvent (water); grade 1 means that the average of the damage levels of plants is less than 10%; grade 2 means that the average of the damage levels of plants is greater than 10%; and grade 3 means that the average of the damage levels of plants is 100%. The plants having a growth status falling within grades 0 and 1 are classified as highly resistant plants; those having a growth status falling within grade 2 are classified as poorly resistant plants; and those having a growth status falling within grade 3 are classified as non-resistant plants.
The maize plants into which the PPOA-02 nucleotide sequence was introduced, the maize plants into which the PPOB-02 nucleotide sequence was introduced, the maize plants into which the PPOC-02 nucleotide sequence was introduced, the maize plants into which the PPOD-02 nucleotide sequence was introduced, the maize plants into which the PPOE-02 nucleotide sequence was introduced, the maize plants into which the PPOF-02 nucleotide sequence was introduced, the maize plants into which the PPO-AP-02 nucleotide sequence was introduced, the maize plants (control vector) into which the control vector was introduced, and the wild-type maize plants (CK) (with 16 plants being included in each genotype) (18 days after sowing) were taken and sprayed with saflufenacil at three concentrations (50 g ai/ha (two-fold field concentration, 2×), 100 g ai/ha (four-fold field concentration, 4×), and 0 g ai/ha (water, 0×)), oxyfluorfen at three concentrations (360 g ai/ha (two-fold field concentration, 2×), 720 g ai/ha (four-fold field concentration, 4×), and 0 g ai/ha (water, 0×), and flumioxazin at three concentrations (120 g ai/ha (two-fold field concentration, 2×), 240 g ai/ha (four-fold field concentration, 4×), and 0 g ai/ha (water, 0×) to determine the tolerance of maize plants to the herbicides. […]

[1] = genotype Control vector, 50 g ai/ha
[2] = genotype Control vector, 100 g ai/ha
[3] = genotype PPO-AP-02, 100 g ai/ha

CC(C)N(C)S(=O)(=O)NC(=O)c1cc(-n2c(=O)cc(C(F)(F)F)n(C)c2=O)c(F)cc1Cl [saflufenacil, N′-[2-chloro-4-fluoro-5-(3-methyl-2,6-dioxo-4-(trifluoromethyl)-3,6-dihydro-1 (2H)-pyrimidine)benzoyl]-N-isopropyl-N-methylsulfamide]
9 plant: The grade of pesticide damage/plant: 3 (genotype PPO-AP-02, 50 g ai/ha)
7 plant: The grade of pesticide damage/plant: 2 (genotype PPO-AP-02, 50 g ai/ha)
6 plant: The grade of pesticide damage/plant: 1 (genotype PPOF-02, 100 g ai/ha)
about 56%: share of the plants that exhibited no tolerance (genotype PPO-AP-02, two-fold field concentration)
15 plant: The grade of pesticide damage/plant: 3 [3]
1 plant: The grade of pesticide damage/plant: 2 [3]
high-resistant tolerance: tolerance to the herbicide (in words) (genotypes PPOA-02 to PPOF-02, four-fold field concentration) | tolerance to the herbicide (in words) (genotypes PPOA-02 to PPOF-02, two-fold field concentration)
10 plant: The grade of pesticide damage/plant: 0 (genotype PPOF-02, 100 g ai/ha)
0 plant: The grade of pesticide damage/plant: 0 (genotype CK, 50 g ai/ha) | The grade of pesticide damage/plant: 1 (genotype CK, 50 g ai/ha) | The grade of pesticide damage/plant: 2 (genotype CK, 50 g ai/ha) | The grade of pesticide damage/plant: 0 (genotype CK, 100 g ai/ha) | The grade of pesticide damage/plant: 1 (genotype CK, 100 g ai/ha) | The grade of pesticide damage/plant: 2 (genotype CK, 100 g ai/ha) | The grade of pesticide damage/plant: 0 [1] | The grade of pesticide damage/plant: 1 [1] | The grade of pesticide damage/plant: 2 [1] | The grade of pesticide damage/plant: 0 [2] | The grade of pesticide damage/plant: 1 [2] | The grade of pesticide damage/plant: 2 [2] | The grade of pesticide damage/plant: 0 (genotype PPO-AP-02, 50 g ai/ha) | The grade of pesticide damage/plant: 1 (genotype PPO-AP-02, 50 g ai/ha) | The grade of pesticide damage/plant: 0 [3] | The grade of pesticide damage/plant: 1 [3] | The grade of pesticide damage/plant: 1 (genotype PPOA-02, 50 g ai/ha) | The grade of pesticide damage/plant: 2 (genotype PPOA-02, 50 g ai/ha) | The grade of pesticide damage/plant: 3 (genotype PPOA-02, 50 g ai/ha) | The grade of pesticide damage/plant: 1 (genotype PPOA-02, 100 g ai/ha) | The grade of pesticide damage/plant: 2 (genotype PPOA-02, 100 g ai/ha) | The grade of pesticide damage/plant: 3 (genotype PPOA-02, 100 g ai/ha) | The grade of pesticide damage/plant: 1 (genotype PPOB-02, 50 g ai/ha) | The grade of pesticide damage/plant: 2 (genotype PPOB-02, 50 g ai/ha) | The grade of pesticide damage/plant: 3 (genotype PPOB-02, 50 g ai/ha) | The grade of pesticide damage/plant: 1 (genotype PPOB-02, 100 g ai/ha) | The grade of pesticide damage/plant: 2 (genotype PPOB-02, 100 g ai/ha) | The grade of pesticide damage/plant: 3 (genotype PPOB-02, 100 g ai/ha) | The grade of pesticide damage/plant: 1 (genotype PPOC-02, 50 g ai/ha) | The grade of pesticide damage/plant: 2 (genotype PPOC-02, 50 g ai/ha) | The grade of pesticide damage/plant: 3 (genotype PPOC-02, 50 g ai/ha) | The grade of pesticide damage/plant: 1 (genotype PPOC-02, 100 g ai/ha) | The grade of pesticide damage/plant: 2 (genotype PPOC-02, 100 g ai/ha) | The grade of pesticide damage/plant: 3 (genotype PPOC-02, 100 g ai/ha) | The grade of pesticide damage/plant: 1 (genotype PPOD-02, 50 g ai/ha) | The grade of pesticide damage/plant: 2 (genotype PPOD-02, 50 g ai/ha) | The grade of pesticide damage/plant: 3 (genotype PPOD-02, 50 g ai/ha) | The grade of pesticide damage/plant: 1 (genotype PPOD-02, 100 g ai/ha) | The grade of pesticide damage/plant: 2 (genotype PPOD-02, 100 g ai/ha) | The grade of pesticide damage/plant: 3 (genotype PPOD-02, 100 g ai/ha) | The grade of pesticide damage/plant: 1 (genotype PPOE-02, 50 g ai/ha) | The grade of pesticide damage/plant: 2 (genotype PPOE-02, 50 g ai/ha) | The grade of pesticide damage/plant: 3 (genotype PPOE-02, 50 g ai/ha) | The grade of pesticide damage/plant: 1 (genotype PPOE-02, 100 g ai/ha) | The grade of pesticide damage/plant: 2 (genotype PPOE-02, 100 g ai/ha) | The grade of pesticide damage/plant: 3 (genotype PPOE-02, 100 g ai/ha) | The grade of pesticide damage/plant: 1 (genotype PPOF-02, 50 g ai/ha) | The grade of pesticide damage/plant: 2 (genotype PPOF-02, 50 g ai/ha) | The grade of pesticide damage/plant: 3 (genotype PPOF-02, 50 g ai/ha) | The grade of pesticide damage/plant: 2 (genotype PPOF-02, 100 g ai/ha) | The grade of pesticide damage/plant: 3 (genotype PPOF-02, 100 g ai/ha)
basically no tolerance: tolerance to the herbicide (in words) (genotype PPO-AP-02, four-fold field concentration)
16 plant: The grade of pesticide damage/plant: 3 (genotype CK, 50 g ai/ha) | The grade of pesticide damage/plant: 3 (genotype CK, 100 g ai/ha) | The grade of pesticide damage/plant: 3 [1] | The grade of pesticide damage/plant: 3 [2] | The grade of pesticide damage/plant: 0 (genotype PPOA-02, 50 g ai/ha) | The grade of pesticide damage/plant: 0 (genotype PPOA-02, 100 g ai/ha) | The grade of pesticide damage/plant: 0 (genotype PPOB-02, 50 g ai/ha) | The grade of pesticide damage/plant: 0 (genotype PPOB-02, 100 g ai/ha) | The grade of pesticide damage/plant: 0 (genotype PPOC-02, 50 g ai/ha) | The grade of pesticide damage/plant: 0 (genotype PPOC-02, 100 g ai/ha) | The grade of pesticide damage/plant: 0 (genotype PPOD-02, 50 g ai/ha) | The grade of pesticide damage/plant: 0 (genotype PPOD-02, 100 g ai/ha) | The grade of pesticide damage/plant: 0 (genotype PPOE-02, 50 g ai/ha) | The grade of pesticide damage/plant: 0 (genotype PPOE-02, 100 g ai/ha) | The grade of pesticide damage/plant: 0 (genotype PPOF-02, 50 g ai/ha)
